Measurements from patent US11596591B2, “Manufacturing method for cosmetic composition of fucoidan and cosmetic composition comprising low molecular weight fucoidan using the same” (priority 2021, dated 2023).

System: mushroom tyrosinase
Experiment: in-vitro tyrosinase inhibition assay (substrate L-tyrosine)
Type: biochemical
Details: 200 μM, positive control
Description: An in-vitro tyrosinase inhibition assay was used to determine whether the whitening ingredients were directly affecting the regulation of the tyrosinase activity (using tyrosine as a substrate). The ingredients with a whitening effect mainly have a mechanism of action that inhibits some processes in the melanin biosynthetic pathway in vivo, which is the initial process in which tyrosinase is involved in the most important process in the synthetic pathway. Most of the whitening ingredients inhibit the activity of tyrosinase and reduce the production of melanin in the skin, resulting in offering a skin whitening effect. […] (1) Test method: For an in-vitro tyrosinase inhibition test of the test substance, mozuku-derived fucoidan extract, the tyrosinase inhibitory ability was measured using an in-vitro tyrosinase inhibition assay. […] The tyrosinase inhibitory effect of the test substance was evaluated by measuring the absorbance of DOPAchrome produced from the substrate L-tyrosine by the enzymatic reaction of tyrosinase. […] A microplate reader system (SpectraMax® i3x Multi Mode Detection Platform Molecular Devices, USA) was used to measure the absorbance at 475 nm. […] As determined by the Student's t test, P<0.05 was considered statistically significant. The in-vitro tyrosinase inhibition activity against the substrate L-tyrosine was calculated according to the following equation: […] […]

- tyrosinase inhibition activity against L-tyrosine with respect to the negative control: 50.47±0.95%
SMILES: OC[C@H]1O[C@@H](Oc2ccc(O)cc2)[C@H](O)[C@@H](O)[C@@H]1O [arbutin]
